Results from patent US11591288B2, “Compositions and methods for treating atherosclerotic cardiovascular disease” (GAVISH-GALILEE BIO APPLICATIONS LTD., priority 2017, dated 2023).

Legend:
rePON1 = rePON1 lactonase activity (dihydrocoumarin assay) after incubation with lyso-DGTS; type: biochemical; details: for rePON1 lactonase activity: 2 h incubation, 37° C., 3.00 units without lyso-DGTS
Experimental: To 200 μl of rePON1 solution (5 μg/ml) in Tris-HCl buffer pH=8.4 was added 1 μl of lyso-DGTS dissolved in dimethyl sulfoxide (DMSO) to a final concentration of 1, 5, 10, 50, and 100 μg/ml. 1 μl DMSO was added to the control rePON1 solution. The mixtures were incubated at 37° C. for 2, 4, 24 or 48 h.
10 μl from each solution were taken to a UV 96-well microplate containing 90 μl Tris-HCL buffer pH=8.4 with 1 mM CaCl2 (activity buffer) in each well. Then 100 μl dihydrocoumarin, 2 mM in the activity buffer was added (prepared from a stock of 100 mM dihydrocoumarin in DMSO). Dihydrocoumarine hydrolysis rate was measured at 270 nm, once in 25 seconds for 15 minutes, using SpectraMax M2 Reader. Non-enzymatic hydrolysis of dihydrocoumarin was subtracted from the total rate of hydrolysis. One unit of lactonase activity was equal to the hydrolysis of 1 μmol of dihydrocoumarin/min.
The effect of lyso-DGTS on lactonase and arylesterase activities of rePON1 was examined. rePON1 (5 μg/ml in Tris buffer pH=8.4) was incubated with different concentrations of lyso-DGTS for 2, 4, 24, and 48 h at 37° C., and its lactonase and aryesterase activities were measured using dihydrocoumarin and phenyl acetate assays, respectively.

J774A.1 macrophages = assay: rePON1 influx to J774A.1 macrophages (FITC-rePON1, FACS); type: cell-based, murine; details: 16 h, 61.62 for rePON1-FITC alone
Experimental: rePON1 (2 mg/ml) was reacted with fluorescein isothiocyanate (FITC) (200 μg/ml) for 1 h at 37° C. in the dark in borate buffer (PH=8.6). Glycine 10 mM was added and the solution was dialyzed using PBS buffer to remove FITC excess. RePON1-FITC conjugate (50 μg/ml) was incubated with lyso-DGTS at different concentration (10, 20, 50 and 100 μg/ml) into RPMI for 2 h. The solution was added to J774A.1 macrophages and incubated for 16 h. Cells were washed three times with sterile PBS buffer (0.1% sodium azid, 0.2% bovine serum albumin (BSA)), harvested in PBS (buffer) and analyzed by fluorescence-activated cell sorting (FACS) (Facscalibur 4ca). Results are presented as mean fluorescence intensity (MFI).
RePON1 was labeled with FITC and incubated with lyso-DGTS at different concentrations (10, 20, 50, and 100 μg/ml) for 2 h. Each solution was added to J774A.1 macrophages and incubated at 37° C. for 16 h, and then analyzed by fluorescence-activated cell sorting (FACS). […] The MFI increased from 61.62 for rePON1-FITS alone to 131.02, 368.61, 386.46, and 517.45 for rePON1 incubated with lyso-DGTS at 10, 20, 50, and 100 μg/ml, respectively (FIG. 6B).

PON1 = PON1 (Homo sapiens, UniProt P27169); assay: PON1 binding to HDL (ratio HDL-bound PON1 vs. free PON1); details: data not shown
PON1, sequence (P27169 whole entry, species assumed): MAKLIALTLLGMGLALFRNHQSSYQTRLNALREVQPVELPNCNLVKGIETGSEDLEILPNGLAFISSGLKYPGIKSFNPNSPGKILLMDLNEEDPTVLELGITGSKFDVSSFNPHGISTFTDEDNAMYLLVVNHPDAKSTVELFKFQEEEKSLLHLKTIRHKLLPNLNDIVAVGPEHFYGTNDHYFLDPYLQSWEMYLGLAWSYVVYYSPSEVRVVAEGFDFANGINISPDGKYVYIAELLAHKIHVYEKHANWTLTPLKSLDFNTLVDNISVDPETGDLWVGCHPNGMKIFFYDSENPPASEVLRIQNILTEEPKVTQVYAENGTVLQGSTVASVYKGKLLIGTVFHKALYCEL

## CC/C=C\C/C=C\C/C=C\C/C=C\C/C=C\CCCC(=O)OCC(O)COCCC(C(=O)[O-])[N+](C)(C)C (stereo not shown) [lyso-DGTS, lyso-diacylglyceryltrimethylhornmoserine]
rePON1; 1 μg/ml lyso-DGTS
  rePON1 lactonase activity: 4.05 units
  rePON1 lactonase activity preserved after incubation for 48 h: 9%
rePON1; 5 μg/ml lyso-DGTS
  rePON1 lactonase activity: 5.73 units
  rePON1 lactonase activity preserved after incubation for 48 h: 33%
rePON1; 10 μg/ml lyso-DGTS
  rePON1 lactonase activity: 8.10 units
  rePON1 lactonase activity preserved after incubation for 48 h: 49%
rePON1; 50 μg/ml lyso-DGTS
  rePON1 lactonase activity: 11.61 units
  rePON1 lactonase activity preserved after incubation for 48 h: 69%
rePON1; 100 μg/ml lyso-DGTS
  rePON1 lactonase activity: 12.7 units
  rePON1 lactonase activity preserved after incubation for 48 h: 66%
rePON1; in buffer solution, abolished after 48 h without lyso-DGTS
  time for which rePON1 lactonase activity is stabilized and preserved: at least 48 h
J774A.1 macrophages; 10 μg/ml lyso-DGTS
  mean fluorescence intensity (MFI) of FITC-rePON1 in cells: 131.02
J774A.1 macrophages; 20 μg/ml lyso-DGTS
  mean fluorescence intensity (MFI) of FITC-rePON1 in cells: 368.61
J774A.1 macrophages; 50 μg/ml lyso-DGTS
  mean fluorescence intensity (MFI) of FITC-rePON1 in cells: 386.46
J774A.1 macrophages; 100 μg/ml lyso-DGTS
  mean fluorescence intensity (MFI) of FITC-rePON1 in cells: 517.45
PON1
  ratio between HDLbound-PON1 vs. free-PON1: did not change
